From PubChem BioAssay AID1963961 (Molecular Pharmacology Branch, DTP, NCI, 2024)
pIC50: −log10 of the molar value.

Tested on: K98450-129-R-PDC multicell spheroids, viability
Assay: Anticancer human tumor K98450-129-R-PDC patient-derived colon adenocarcinoma cell line growth inhibition [PI3K]
Settings: for pIC50: curve of first compound; for viability, T/C: stronger effect = lower value
In short: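 Targeted small molecules plus PI3K inhibitors, half-log dose series from Cmax (default top 10 microM), were applied to heterotypic spheroids of cancer cells with HUVEC and MSCs. Viability indicated growth inhibition.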

[1] = second compound 0.0316 µM, first compound 0.0316 µM
[2] = second compound 0.0316 µM, first compound 0.1 µM
[3] = second compound 0.0316 µM, first compound 0.316 µM
[4] = second compound 0.0316 µM, first compound 1 µM
[5] = second compound 0.0316 µM, first compound 3.16 µM
[6] = second compound 0.0316 µM, first compound 10 µM
[7] = second compound 0.1 µM, first compound 0.0316 µM
[8] = second compound 0.1 µM, first compound 0.1 µM
[9] = second compound 0.1 µM, first compound 0.316 µM
[10] = second compound 0.1 µM, first compound 1 µM
[11] = second compound 0.1 µM, first compound 3.16 µM
[12] = second compound 0.1 µM, first compound 10 µM
[13] = second compound 0.316 µM, first compound 0.0316 µM
[14] = second compound 0.316 µM, first compound 0.1 µM
[15] = second compound 0.316 µM, first compound 0.316 µM
[16] = second compound 0.316 µM, first compound 1 µM
[17] = second compound 0.316 µM, first compound 3.16 µM
[18] = second compound 0.316 µM, first compound 10 µM
[19] = second compound 1 µM, first compound 0.0316 µM
[20] = second compound 1 µM, first compound 0.1 µM
[21] = second compound 1 µM, first compound 0.316 µM
[22] = second compound 1 µM, first compound 1 µM
[23] = second compound 1 µM, first compound 3.16 µM
[24] = second compound 1 µM, first compound 10 µM
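Also: spheroids exposed to agents for seven days before read-out.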

Structure (SMILES): CC1(C)CCC(CN2CCN(c3ccc(C(=O)NS(=O)(=O)c4ccc(NCC5CCOCC5)c([N+](=O)[O-])c4)c(Oc4cnc5[nH]ccc5c4)c3)CC2)=C(c2ccc(Cl)cc2)C1 + CC(Nc1ccc2c(c1)OCCn1cc(N3C(=O)OCC3C(F)F)nc1-2)C(N)=O
- pIC50 (second compound 0.00316 µM): 5.24
- pIC50 (second compound 0.01 µM): 5.23
- pIC50 (second compound 0.0316 µM): 5.22
- pIC50 (second compound 0.1 µM): 5.25
- pIC50 (second compound 0.316 µM): 5.25
- pIC50 (second compound 1 µM): 5.27
- viability, T/C (second compound 0.00316 µM, first compound 0.0316 µM): 105%
- viability, T/C (second compound 0.00316 µM, first compound 0.1 µM): 105%
- viability, T/C (second compound 0.00316 µM, first compound 0.316 µM): 99.9%
- viability, T/C (second compound 0.00316 µM, first compound 1 µM): 103%
- viability, T/C (second compound 0.00316 µM, first compound 3.16 µM): 96.5%
- viability, T/C (second compound 0.00316 µM, first compound 10 µM): 6.21%
- viability, T/C (second compound 0.01 µM, first compound 0.0316 µM): 111%
- viability, T/C (second compound 0.01 µM, first compound 0.1 µM): 98.7%
- viability, T/C (second compound 0.01 µM, first compound 0.316 µM): 109%
- viability, T/C (second compound 0.01 µM, first compound 1 µM): 104%
- viability, T/C (second compound 0.01 µM, first compound 3.16 µM): 103%
- viability, T/C (second compound 0.01 µM, first compound 10 µM): 6.45%
- viability, T/C [1]: 106%
- viability, T/C [2]: 107%
- viability, T/C [3]: 106%
- viability, T/C [4]: 99.6%
- viability, T/C [5]: 99.8%
- viability, T/C [6]: 9.42%
- viability, T/C [7]: 98.2%
- viability, T/C [8]: 104%
- viability, T/C [9]: 103%
- viability, T/C [10]: 102%
- viability, T/C [11]: 95.2%
- viability, T/C [12]: 6.43%
- viability, T/C [13]: 97.9%
- viability, T/C [14]: 92.8%
- viability, T/C [15]: 101%
- viability, T/C [16]: 85.3%
- viability, T/C [17]: 96.3%
- viability, T/C [18]: 4.55%
- viability, T/C [19]: 86.6%
- viability, T/C [20]: 88.1%
- viability, T/C [21]: 89.8%
- viability, T/C [22]: 90.2%
- viability, T/C [23]: 85.2%
- viability, T/C [24]: 8.82%

Structure (SMILES): Cn1ncc(Cl)c1-c1cc(C(=O)NC(CN)Cc2cccc(F)c2)sc1Cl (centres undefined) + CC(Nc1ncnc2nc[nH]c12)c1cc2cccc(Cl)c2c(=O)n1-c1ccccc1
- pIC50 (second compound 0.0316 µM): < 5.00
- pIC50 (second compound 0.1 µM): < 5.00
- pIC50 (second compound 0.316 µM): < 5.00
- pIC50 (second compound 1 µM): < 5.00
- pIC50 (second compound 3.16 µM): 5.02
- pIC50 (second compound 10 µM): 5.07
- viability, T/C [1]: 88.4%
- viability, T/C [2]: 105%
- viability, T/C [3]: 102%
- viability, T/C [4]: 93.8%
- viability, T/C [5]: 98.1%
- viability, T/C [6]: 56.9%
- viability, T/C [7]: 107%
- viability, T/C [8]: 85%
- viability, T/C [9]: 96%
- viability, T/C [10]: 92.6%
- viability, T/C [11]: 98.1%
- viability, T/C [12]: 59.8%
- viability, T/C [13]: 110%
- viability, T/C [14]: 106%
- viability, T/C [15]: 92.4%
- viability, T/C [16]: 101%
- viability, T/C [17]: 99%
- viability, T/C [18]: 61.5%
- viability, T/C [19]: 95.7%
- viability, T/C [20]: 110%
- viability, T/C [21]: 101%
- viability, T/C [22]: 80.8%
- viability, T/C [23]: 96.6%
- viability, T/C [24]: 61.2%
- viability, T/C (second compound 3.16 µM, first compound 0.0316 µM): 87.3%
- viability, T/C (second compound 3.16 µM, first compound 0.1 µM): 94.5%
- viability, T/C (second compound 3.16 µM, first compound 0.316 µM): 106%
- viability, T/C (second compound 3.16 µM, first compound 1 µM): 96.9%
- viability, T/C (second compound 3.16 µM, first compound 3.16 µM): 97%
- viability, T/C (second compound 3.16 µM, first compound 10 µM): 48.4%
- viability, T/C (second compound 10 µM, first compound 0.0316 µM): 85.1%
- viability, T/C (second compound 10 µM, first compound 0.1 µM): 86.1%
- viability, T/C (second compound 10 µM, first compound 0.316 µM): 87%
- viability, T/C (second compound 10 µM, first compound 1 µM): 94.9%
- viability, T/C (second compound 10 µM, first compound 3.16 µM): 89.8%
- viability, T/C (second compound 10 µM, first compound 10 µM): 43.7%
